Measurements as given in patent publication US20070173488A1, “Pyrazolothiazole Protein Kinase Modulators” (SGX Pharmaceuticals, Inc., priority 2005, published 2007).

Biological target: Met (Homo sapiens, UniProt P08581)
Assay: MET Luminescence-based Enzyme Assay (Kinase-Glo)
Type: biochemical
Set-up: Sf9 insect cell culture expressing the kinase domain of human Met; 6x Histidine tag (TEV-cleavable) (cleaved yes); made in house; host or cells: Sf9 insect cells
From the text: Homogeneous luminescence-based inhibitor screening assays were developed for c-Abl, MET, AurA, and PDK1 kinases (among others). Each of these assays made use of an ATP depletion assay (Kinase-Glo™, Promega Corporation, Madison, Wis.) to quantitate kinase activity. The Kinase-Glo™ format uses a thermostable luciferase to generate luminescent signal from ATP remaining in solution following the kinase reaction. The luminescent signal is inversely correlated with the amount of kinase activity.
Dose response was analyzed using the equation: y=min+{(max−min)/(1 +10^[compound]-logIC50)}, where y is the observed initial slope, max=the slope in the absence of inhibitor, min=the slope at infinite inhibitor, and the IC50 is the [compound] that corresponds to ½ the total observed amplitude (Amplitude=max−min).
The cell pellets produced from half of a 12 L Sf9 insect cell culture expressing the kinase domain of human Met were resuspended in a buffer containing 50 mM Tris-HCl pH 7.7 and 250 mM NaCl, in a volume of approximately 40 ml per 1 L of original culture. One tablet of Roche Complete, EDTA-free protease inhibitor cocktail (Cat# 1873580) was added per 1 L of original culture. The suspension was stirred for 1 hour at 4° C. Debris was removed by centrifugation for 30 minutes at 39,800×g at 4° C. The supernatant was decanted into a 500 ml beaker and 10 ml of 50% slurry of Qiagen Ni-NTA Agarose (Cat# 30250) that had been pre-equilibrated in 50 mM Tris-HCl pH 7.8, […], 10% Glycerol, 10 mM Imidazole, and 10 mM Methionine, were added and stirred for 30 minutes at 4° C. The sample was then poured into a drip column at 4° C. and washed with 10 column volumes of 50 mM Tris-HCl pH 7.8, 500 mM NaCl, 10% Glycerol, 10 mM Imidazole, and 10 mM Methionine. The protein was eluted using a step gradient with two column volumes each of the same buffer containing 50 mM, 200 mM, and 500 mM Imidazole, sequentially. The 6× Histidine tag was cleaved overnight using 40 units of TEV protease (Invitrogen Cat# 10127017) per 1 mg of protein while dialyzing in 50 mM Tris-HCl pH 7.8, 500 mM NaCl, 10% Glycerol, 10 mM Imidazole, and 10 mM Methionine at 4° C. The 6× Histidine tag was removed by passing the sample over a Pharmacia 5 ml IMAC column (Cat# 17-0409-01) charged with Nickel and equilibrated in 50 mM Tris-HCl pH 7.8, 500 mM NaCl, 10% Glycerol, 10 mM Imidazole, and 10 mM Methionine. The cleaved protein bound to the Nickel column at a low affinity and was eluted with a step gradient. The step gradient was run with 15% and then 80% of the B-side (A-side=50 mM Tris-HCl pH 7.8, 500 mM NaCl, 10% Glycerol, 10 mM Imidazole, and 10 mM Methionine; B-side=50 mM Tris-HCl pH 7.8, 500 mM NaCl, 10% Glycerol, 500 mM Imidazole, and 10 mM Methionine) for 4 column volumes each. The Met protein eluted in the first step (15%), whereas the non-cleaved Met and the cleaved Histidine tag eluted in the 80% fractions. The 15% fractions were pooled after SDS-PAGE gel analysis confirmed the presence of cleaved Met; further purification was done by gel filtration chromatography on an Amersham Biosciences HiLoad 16/60 Superdex 200 prep grade (Cat# 17-1069-01) equilibrated in 50 mM Tris-HCl pH 8.5, 150 mM NaCl, ˜10% Glycerol and 5 mM DTT. The cleanest fractions were combined and concentrated to ˜10.4 mg/ml by centrifugation in an Amicon Ultra-15 10,000 Da MWCO centrifugal filter unit (Cat# UFC901024).
MET Luminescence-based Enzyme Assay
Materials: Poly Glu-Tyr (4:1) substrate (Sigma Cat# P-0275), ATP (Sigma Cat#A-3377, FW=551), HEPES buffer, pH 7.5, Bovine serum albumin (BSA) (Roche 92423420), MgCl2, Staurosporine (Streptomyces sp. Sigma Cat#85660-1MG), white Costar 384-well flat-bottom plate (VWR Cat#29444-088). MET kinase (see below), Kinase-Glo™ (Promega Cat#V6712).
Stock Solutions: 10 mg/ml poly Glu-Tyr in water, stored at −20° C.; 100 mM HEPES buffer, pH 7.5 (5 ml 1M stock+45 ml miliQH2O); 10 mM ATP (5.51 mg/ml in dH2O) stored at −20° C. […]

Met, sequence (P08581 1078-1345 limits assumed): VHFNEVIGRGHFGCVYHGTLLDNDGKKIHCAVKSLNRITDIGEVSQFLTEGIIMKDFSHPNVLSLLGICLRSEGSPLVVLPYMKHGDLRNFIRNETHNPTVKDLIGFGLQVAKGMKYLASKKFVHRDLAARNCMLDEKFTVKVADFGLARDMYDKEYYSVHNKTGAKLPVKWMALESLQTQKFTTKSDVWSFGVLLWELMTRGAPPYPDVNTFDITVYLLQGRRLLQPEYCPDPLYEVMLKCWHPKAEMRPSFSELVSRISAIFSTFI

Compound	IC50
O=C(Nc1cc[nH]n1)Nc1nc2[nH]nc(-n3cncc3-c3ccccc3Cl)c2s1 [1-{3-[5-(2-Chloro-phenyl)-imidazol-1-yl]-1H-pyrazolo[3,4-d]thiazol-5-yl}-3-(1H-pyrazol-3-yl)-urea]	> 10000 nM
O=C(Nc1nc2[nH]nc(-n3cncc3-c3ccc4ccccc4c3)c2s1)C1CC1 [Cyclopropanecarboxylic acid [3-(5-naphthalen-2-yl-imidazol-1-yl)-1H-pyrazolo[3,4-d]thiazol-5-yl]-amide]	1000 to 10000 nM
O=C(Nc1nc2[nH]nc(-n3cncc3-c3ccccc3)c2s1)C1CC1 [Cyclopropanecarboxylic acid [3-(5-phenyl-imidazol-1-yl)-1H-pyrazolo[3,4-d]thiazol-5-yl]-amide]	> 10000 nM
O=C(Nc1nc2[nH]nc(-n3cncc3-c3ccccn3)c2s1)C1CC1 [Cyclopropanecarboxylic acid [3-(5-pyridin-2-yl-imidazol-1-yl)-1H-pyrazolo[3,4-d]thiazol-5-yl]-amide]	> 10000 nM
O=C(Nc1nc2[nH]nc(-n3cncc3-c3cc(Cl)cc(Cl)c3Cl)c2s1)C1CC1 [Cyclopropanecarboxylic acid {3-[5-(2,3,5-trichloro-phenyl)-imidazol-1-yl]-1H-pyrazolo[3,4-d]thiazol-5-yl}-amide]	1000 to 10000 nM
O=C(Nc1nc2[nH]nc(-n3cncc3-c3c(Cl)ccc(Cl)c3Cl)c2s1)C1CC1 [Cyclopropanecarboxylic acid {3-[5-(2,3,6-trichloro-phenyl)-imidazol-1-yl]-1H-pyrazolo[3,4-d]thiazol-5-yl}-amide]	1000 to 10000 nM
O=C(Nc1nc2[nH]nc(-n3cncc3-c3cccc(F)c3F)c2s1)C1CC1 [Cyclopropanecarboxylic acid {3-[5-(2,3-difluoro-phenyl)-imidazol-1-yl]-1H-pyrazolo[3,4-d]thiazol-5-yl}-amide]	1000 to 10000 nM
O=C(Nc1nc2[nH]nc(-n3cncc3-c3c(Cl)cccc3Cl)c2s1)C1CC1 [Cyclopropanecarboxylic acid {3-[5-(2,6-dichloro-phenyl)-imidazol-1-yl]-1H-pyrazolo[3,4-d]thiazol-5-yl}-amide]	1000 to 10000 nM
COc1ccc2nc(Cl)c(-c3cncn3-c3n[nH]c4nc(NC(=O)C5CC5)sc34)cc2c1 [Cyclopropanecarboxylic acid {3-[5-(2-chloro-6-methoxy-quinolin-3-yl)-imidazol-1-yl]-1H-pyrazolo[3,4-d]thiazol-5-yl}-amide]	100 to 1000 nM
O=C(Nc1nc2[nH]nc(-n3cncc3-c3ccccc3Cl)c2s1)C1CC1 [Cyclopropanecarboxylic acid {3-[5-(2-chloro-phenyl)-imidazol-1-yl]-1H-pyrazolo[3,4-d]thiazol-5-yl}-amide]	100 to 1000 nM
NC(=O)COc1ccc(-c2cncn2-c2n[nH]c3nc(NC(=O)C4CC4)sc23)c(Cl)c1 [Cyclopropanecarboxylic acid {3-[5-(4-carbamoylmethoxy-2-chloro-phenyl)-imidazol-1-yl]-1H-pyrazolo[3,4-d]thiazol-5-yl}-amide]	100 to 1000 nM
CS(=O)(=O)c1ccc(F)cc1-c1cncn1-c1n[nH]c2nc(NC(=O)C3CC3)sc12 [Cyclopropanecarboxylic acid {3-[5-(5-fluoro-2-methanesulfonyl-phenyl)-imidazol-1-yl]-1H-pyrazolo[3,4-d]thiazol-5-yl}-amide]	> 10000 nM
